# Data taken from US20210395256A1, “TYROSINE KINASE INHIBITORS, COMPOSITIONS AND METHODS THERE OF” (Betta Pharmaceuticals Co., Ltd., priority 2018, published 2021).
# Target: TrkA kinase (Homo sapiens, UniProt P04629)
# Test: TrkA kinase assay (mobility shift assay)
# Format: biochemical
# Details: class symbols; read-out: Trk A Kinase IC50
# Description: Example 201 TrkA Kinase Assay
# Mobility shift assay was used to determine the inhibitory activity of compounds against TrkA kinase. Assay procedures are as follows:
# 1× Kinase base buffer (50 mM HEPES, pH 7.5; 0.0015% Brij-35)
# Stop buffer (100 mM HEPES, pH 7.5; 0.015% Brij-35; 0.2% Coating Reagent #3; 50 mM EDTA)
# 1) Dilute the compound to 50× of the final desired highest inhibitor concentration in reaction by 100% DMSO. Transfer 100 μl of this compound dilution to a well in a 96-well plate.
# 2) For all compounds, transfer the compound in tubes to one well on 96-well storage plate and serially dilute the compound by transferring 30 μl to 60 μl of 100% DMSO in the next well and so forth for a total of 10 concentrations.
# 3) Add 100 μl of 100% DMSO to two empty wells for no compound control and no enzyme control in the same 96-well plate. Mark the plate as source plate.
# 4) Prepare intermediate plate
# Transfer 10 μl of compound from source plate to a new 96-well plate as the intermediate plate
# Add 90 µl of 1× kinase buffer to each well of the intermediate plate.
# Mix the compounds in intermediate plate for 10 min on shaker.
# 1) Transfer 5 μl of each well from the 96-well intermediate plate to a 384-well plate in duplicates. For example, A1 of the 96-well plate is transferred to A1 and A2 of the 384-well plate. A2 of the 96-well plate is transferred to A3 and A4 of the 384-well plate, and so on.
# 1) Prepare 2.5× enzyme solution
# Add kinase in 1× kinase base buffer.
# 2) Prepare 2.5× peptide solution Add FAM-labeled peptide and ATP in the 1× kinase base buffer.
# 3) Assay plate already contains 5 μl of compound in 10% DMSO.
# 4) Transfer 2.5× enzyme solution to the assay plate
# Add 10 μl of 2.5× enzyme solution to each well of the 384-well assay plate.
# 5) Incubate at room temperature for 10 min.
# 6) Transfer 2.5× peptide solution to the assay plate
# Add 10 μl of 2.5× peptide solution to each well of the 384-well assay plate.
# Kinase reaction conditions are shown as Table 11:
# 7) Kinase reaction and stop
# Incubate at 28° C. for specified period of time.
# Add 25 μl of stop buffer to stop reaction.
# 1) Copy conversion data from Caliper program.
# 2) Convert conversion values to inhibition values.
# Percent inhibition=(max-conversion)/(max-min)*100.
# “max” stands for DMSO control; “min” stands for low control.
# 3) Fit the data in XLFit excel add-in version 5.4.0.8 to obtain IC50 values.
# Equation used is: Y=Bottom+(Top-Bottom)/(1+(IC50/X)^HillSlope)
# Sequence of TrkA kinase (P04629 33-796): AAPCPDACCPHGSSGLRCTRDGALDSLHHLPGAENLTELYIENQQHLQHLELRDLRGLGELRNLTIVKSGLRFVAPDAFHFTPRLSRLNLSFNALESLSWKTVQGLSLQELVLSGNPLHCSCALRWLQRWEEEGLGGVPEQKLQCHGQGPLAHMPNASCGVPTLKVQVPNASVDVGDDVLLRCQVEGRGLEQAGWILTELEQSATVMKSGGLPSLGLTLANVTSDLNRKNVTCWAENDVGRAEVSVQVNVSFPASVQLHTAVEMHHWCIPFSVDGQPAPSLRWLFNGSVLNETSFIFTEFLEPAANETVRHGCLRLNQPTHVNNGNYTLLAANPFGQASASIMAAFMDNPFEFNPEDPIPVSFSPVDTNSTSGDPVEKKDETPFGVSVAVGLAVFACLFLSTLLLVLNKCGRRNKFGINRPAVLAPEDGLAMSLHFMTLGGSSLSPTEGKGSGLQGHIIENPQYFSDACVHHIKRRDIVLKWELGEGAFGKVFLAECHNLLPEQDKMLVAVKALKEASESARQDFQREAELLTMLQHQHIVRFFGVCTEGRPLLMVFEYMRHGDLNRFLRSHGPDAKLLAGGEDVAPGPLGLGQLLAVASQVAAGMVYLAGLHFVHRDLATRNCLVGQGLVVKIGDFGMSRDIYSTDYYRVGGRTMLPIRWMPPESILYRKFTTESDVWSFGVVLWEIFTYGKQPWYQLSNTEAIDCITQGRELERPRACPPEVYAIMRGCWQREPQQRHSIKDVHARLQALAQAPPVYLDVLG
row,IC50 [nM],SMILES
1,≤ 10,"Fc1ccc(F)c([C@H]2CCCN2c2ccn3ncc(-c4nc5nccnc5[nH]4)c3n2)c1 [Compound 128, (R)-2-(5-(2-(2,5-difluorophenyl)pyrrolidin-1-yl)pyrazolo[1,5-a]pyrimidin-3-yl)-1H-imidazo[4,5-b]pyrazine]"
2,> 50,"Fc1ccc(F)c([C@H]2CCCN2c2ccn3ncc(-c4nc5ccc(N6CCN7CCC[C@@H]7C6)cc5s4)c3n2)c1 [Compound 63, 2-(5-((R)-2-(2,5-difluorophenyl)pyrrolidin-1-yl)pyrazolo[1,5-a]pyrimidin-3-yl)-6-((R)-hexahydropyrrolo[1,2-a]pyrazin-2(1H)-yl)benzo[d]thiazole]"
3,10 to 50,"OC1CCNC(c2nnc(-c3cnn4ccc(N5CCC[C@@H]5c5cc(F)ccc5F)nc34)[nH]2)C1 (stereo partly drawn) [Compound 35, 2-(5-(5-((R)-2-(2,5-difluorophenyl)pyrrolidin-1-yl)pyrazolo[1,5-a]pyrimidin-3-yl)-4H-1,2,4-triazol-3-yl)piperidin-4-ol]"
4,≤ 10,"OCc1cc2nc(-c3cnn4ccc(N5CCC[C@@H]5c5cc(F)ccc5F)nc34)[nH]c2cn1 [Compound 135, (R)-(2-(5-(2-(2,5-difluorophenyl)pyrrolidin-1-yl)pyrazolo[1,5-a]pyrimidin-3-yl)-3H-imidazo[4,5-c]pyridin-6-yl)methanol]"
5,≤ 10,"N#Cc1cc2nc(-c3cnn4ccc(N5CCC[C@@H]5c5cc(F)ccc5F)nc34)[nH]c2cc1Br [Compound 151, (R)-6-bromo-2-(5-(2-(2,5-difluorophenyl)pyrrolidin-1-yl)pyrazolo[1,5-a]pyrimidin-3-yl)-1H-benzo[d]imidazole-5-carbonitrile]"
6,≤ 10,"Fc1ccc(F)c([C@H]2CCCN2c2ccn3ncc(-c4nnc(-c5ccc6cn[nH]c6c5)[nH]4)c3n2)c1 [Compound 59, (R)-3-(5-(1H-indazol-6-yl)-4H-1,2,4-triazol-3-yl)-5-(2-(2,5-difluorophenyl)pyrrolidin-1-yl)pyrazolo[1,5-a]pyrimidine]"
7,≤ 10,"CN(C)CCN(C)c1cc2[nH]c(-c3cnn4ccc(N5CCC[C@@H]5c5cc(F)ccc5F)nc34)nc2cc1C#N [Compound 168, (R)-2-(5-(2-(2,5-difluorophenyl)pyrrolidin-1-yl)pyrazolo[1,5-a]pyrimidin-3-yl)-6-((2-(dimethylamino)ethyl)(methyl)amino)-1H-benzo[d]imidazole-5-carbonitrile]"
8,10 to 50,"NC(=O)N1CCc2nc(-c3cnn4ccc(N5CCC[C@@H]5c5cc(F)ccc5F)nc34)sc2C1 [Compound 191, (R)-2-(5-(2-(2,5-difluorophenyl)pyrrolidin-1-yl)pyrazolo[1,5-a]pyrimidin-3-yl)-6,7-dihydrothiazolo[5,4-c]pyridine-5(4H)-carboxamide]"
9,≤ 10,"N#Cc1cc2nc(-c3cnn4ccc(N5CCC[C@@H]5c5cc(F)ccc5F)nc34)[nH]c2cc1N1CCOCC1 [Compound 143, (R)-2-(5-(2-(2,5-difluorophenyl)pyrrolidin-1-yl)pyrazolo[1,5-a]pyrimidin-3-yl)-6-morpholino-1H-benzo[d]imidazole-5-carbonitrile]"
10,10 to 50,"Fc1ccc(F)c([C@H]2CCCN2c2ccn3ncc(-c4nc5c(s4)COCC5)c3n2)c1 [Compound 192, (R)-2-(5-(2-(2,5-difluorophenyl)pyrrolidin-1-yl)pyrazolo[1,5-a]pyrimidin-3-yl)-6,7-dihydro-4H-pyrano[4,3-d]thiazole]"
11,> 50,"CCC(O)(c1nnc(-c2cnn3ccc(N4CCC[C@@H]4c4cc(F)ccc4F)nc23)[nH]1)C(F)(F)F (stereo partly drawn) [Compound 28, 2-(5-(5-((R)-2-(2,5-difluorophenyl)pyrrolidin-1-yl)pyrazolo[1,5-a]pyrimidin-3-yl)-4H-1,2,4-triazol-3-yl)-1,1,1-trifluorobutan-2-ol]"
12,> 50,"COc1cc2[nH]c(-c3cnn4ccc(N5CCC[C@@H]5c5ccc(F)cc5)nc34)nc2cc1C#N [Compound 198, (R)-2-(5-(2-(4-fluorophenyl)pyrrolidin-1-yl)pyrazolo[1,5-a]pyrimidin-3-yl)-6-methoxy-1H-benzo[d]imidazole-5-carbonitrile]"

# Same assay, conditions: numeric values; read-out: Trk A Kinase IC50
row,IC50 [nM],SMILES
1,0.96,"Fc1ccc(F)c([C@H]2CCCN2c2ccn3ncc(-c4nc5ccc(F)cc5[nH]4)c3n2)c1 [Compound 74, (R)-5-(2-(2,5-difluorophenyl)pyrrolidin-1-yl)-3-(6-fluoro-1H-benzo[d]imidazol-2-yl)pyrazolo[1,5-a]pyrimidine]"
2,1.9,"Fc1ccc(F)c([C@H]2CCCN2c2ccn3ncc(-c4nc5cccc(Cl)c5[nH]4)c3n2)c1 [Compound 97, (R)-3-(7-chloro-1H-benzo[d]imidazol-2-yl)-5-(2-(2,5-difluorophenyl)pyrrolidin-1-yl)pyrazolo[1,5-a]pyrimidine]"
3,1.9,"Fc1ccc(F)c([C@H]2CCCN2c2ccn3ncc(-c4nc5cc(F)c(F)cc5[nH]4)c3n2)c1 [Compound 136, (R)-3-(5,6-difluoro-1H-benzo[d]imidazol-2-yl)-5-(2-(2,5-difluorophenyl)pyrrolidin-1-yl)pyrazolo[1,5-a]pyrimidine]"
4,11.7,"CN1CCC(c2nnc(-c3cnn4ccc(N5CCC[C@@H]5c5cc(F)ccc5F)nc34)[nH]2)CC1 [Compound 38, (R)-5-(2-(2,5-difluorophenyl)pyrrolidin-1-yl)-3-(5-(1-methylpiperidin-4-yl)-4H-1,2,4-triazol-3-yl)pyrazolo[1,5-a]pyrimidine]"
5,0.9,"COc1cc2[nH]c(-c3cnn4ccc(N5CCC[C@@H]5c5cc(F)ccc5F)nc34)nc2cc1C(=O)N(C)C [Compound 161, (R)-2-(5-(2-(2,5-difluorophenyl)pyrrolidin-1-yl)pyrazolo[1,5-a]pyrimidin-3-yl)-6-methoxy-N,N-dimethyl-1H-benzo[d]imidazole-5-carboxamide]"
6,7,"Fc1ccc(F)c([C@H]2CCCN2c2ccn3ncc(-c4nc5ncc(Cl)c(Cl)c5[nH]4)c3n2)c1 [Compound 102, (R)-6,7-dichloro-2-(5-(2-(2,5-difluorophenyl)pyrrolidin-1-yl)pyrazolo[1,5-a]pyrimidin-3-yl)-1H-imidazo[4,5-b]pyridine]"
7,1.17,"CN1CCN(c2ccc(-c3nnc(-c4cnn5ccc(N6CCC[C@@H]6c6cc(F)ccc6F)nc45)[nH]3)cn2)CC1 [Compound 54, (R)-5-(2-(2,5-difluorophenyl)pyrrolidin-1-yl)-3-(5-(6-(4-methylpiperazin-1-yl)pyridin-3-yl)-4H-1,2,4-triazol-3-yl)pyrazolo[1,5-a]pyrimidine]"
8,0.77,"Oc1ncnc2nc(-c3cnn4ccc(N5CCC[C@@H]5c5cc(F)ccc5F)nc34)[nH]c12 [Compound 88, (R)-8-(5-(2-(2,5-difluorophenyl)pyrrolidin-1-yl)pyrazolo[1,5-a]pyrimidin-3-yl)-7H-purin-6-ol]"
9,13.5,"Fc1ccc(F)c([C@H]2CCCN2c2ccn3ncc(-c4nc5c(Cl)ccc(Cl)c5[nH]4)c3n2)c1 [Compound 104, (R)-3-(4,7-dichloro-1H-benzo[d]imidazol-2-yl)-5-(2-(2,5-difluorophenyl)pyrrolidin-1-yl)pyrazolo[1,5-a]pyrimidine]"
10,0.59,"Fc1ccc(F)c([C@H]2CCCN2c2ccn3ncc(-c4nc5cnccc5o4)c3n2)c1 [Compound 73, (R)-2-(5-(2-(2,5-difluorophenyl)pyrrolidin-1-yl)pyrazolo[1,5-a]pyrimidin-3-yl)oxazolo[4,5-c]pyridine]"
11,0.8,"OB1OCc2ccc(-c3nnc(-c4cnn5ccc(N6CCC[C@@H]6c6cc(F)ccc6F)nc45)[nH]3)cc21 [Compound 45, (R)-6-(5-(5-(2-(2,5-difluorophenyl)pyrrolidin-1-yl)pyrazolo[1,5-a]pyrimidin-3-yl)-4H-1,2,4-triazol-3-yl)benzo[c][1,2]oxaborol-1(3H)-ol]"
12,0.7,"COc1ccc2nc(-c3cnn4ccc(N5CCC[C@@H]5c5cc(F)ccc5F)nc34)[nH]c2c1 [Compound 77, (R)-5-(2-(2,5-difluorophenyl)pyrrolidin-1-yl)-3-(6-methoxy-1H-benzo[d]imidazol-2-yl)pyrazolo[1,5-a]pyrimidine]"
13,2.65,"COC(=O)c1cc2[nH]c(-c3cnn4ccc(N5CCC[C@@H]5c5cc(F)ccc5F)nc34)nc2c(F)c1F [Compound 137, methyl (R)-2-(5-(2-(2,5-difluorophenyl)pyrrolidin-1-yl)pyrazolo[1,5-a]pyrimidin-3-yl)-4,5-difluoro-1H-benzo[d]imidazole-6-carboxylate]"
